Among the data in patent US20220267260A1, “COMPOUNDS CONTAINING A SULFONIC GROUP AS KAT INHIBITORS” (Epizyme, Inc., priority 2016, published 2022) are IC50 values, retold here.

Counter-ions that a name gives are not always drawn.

For assay [1], the target named is T1, KAT5 (Homo sapiens, UniProt Q92993).
T1 construct: His-TEV tag (N, cleaved yes); made in house
In words: KAT5 enzyme inhibition assay (SAMDI mass spectrometry). In kind it is biochemical. Particulars: His-TEV-FL KAT5-Flag enzyme construct.

Assay [2] has as its target T2, KAT6A (Homo sapiens, UniProt Q92794).
T2 construct: His-TEV tag (N, cleaved yes); made in house
The experiment in a line: KAT6A enzyme inhibition assay (SAMDI mass spectrometry). In kind it is biochemical. Conditions: His-TEV-KAT6A 501-784 enzyme construct.

T2 sequence (Q92794 with tags, fused parts or gaps): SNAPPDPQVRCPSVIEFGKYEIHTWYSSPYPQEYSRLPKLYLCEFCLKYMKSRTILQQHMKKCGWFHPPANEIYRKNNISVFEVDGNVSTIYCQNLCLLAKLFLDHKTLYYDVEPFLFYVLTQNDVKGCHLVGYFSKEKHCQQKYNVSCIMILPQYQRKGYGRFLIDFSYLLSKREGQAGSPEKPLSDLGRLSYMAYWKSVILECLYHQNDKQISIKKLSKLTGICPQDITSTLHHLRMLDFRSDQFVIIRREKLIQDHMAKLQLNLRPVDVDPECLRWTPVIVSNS
T1 sequence (Q92993 with tags, fused parts or gaps): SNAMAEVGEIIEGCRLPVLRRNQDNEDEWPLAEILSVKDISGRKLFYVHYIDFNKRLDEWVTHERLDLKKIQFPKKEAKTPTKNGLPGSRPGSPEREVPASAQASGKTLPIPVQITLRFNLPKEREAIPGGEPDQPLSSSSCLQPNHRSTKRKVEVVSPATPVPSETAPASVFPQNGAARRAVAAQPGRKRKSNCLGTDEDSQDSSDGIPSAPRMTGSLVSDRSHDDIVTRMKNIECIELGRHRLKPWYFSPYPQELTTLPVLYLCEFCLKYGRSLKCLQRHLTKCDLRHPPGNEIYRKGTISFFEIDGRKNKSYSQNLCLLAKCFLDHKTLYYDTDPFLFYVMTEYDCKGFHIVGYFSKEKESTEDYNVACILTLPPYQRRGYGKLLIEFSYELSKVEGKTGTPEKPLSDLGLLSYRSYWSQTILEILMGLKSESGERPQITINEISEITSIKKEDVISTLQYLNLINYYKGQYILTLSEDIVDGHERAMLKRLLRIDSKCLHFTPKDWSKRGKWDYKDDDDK

With `Cc1cc(-c2ccccc2)cc(C(=O)NNS(=O)(=O)C2CCCN(C(C)C)C2)c1F` (stereo not shown) [Compound I-100], the values for the IC50 in assay [1] and in assay [2] were over 100 µM and 50 to 100 µM, respectively.
The like results for `COCCN1CCCC(S(=O)(=O)NNC(=O)c2cc(-c3ccccc3)cc(C)c2F)C1` (stereo not shown) [Compound I-101] were, in that order, 10 to 50 µM and 10 to 50 µM.
For the compound `CC(=O)N1CCCC(S(=O)(=O)NNC(=O)c2cc(-c3ccccc3)cc(C)c2F)C1` (stereo not shown) [Compound I-102], the concentration for half-maximal inhibition (IC50) in assay [1] and in assay [2] was 10 to 50 µM in each case.
Regarding `COCCN1CC(S(=O)(=O)NNC(=O)c2cccc(C)c2F)C1` [Compound I-103], the IC50 in assay [1] and in assay [2] was over 100 µM each time.
For the compound `CCC(=O)N1CCC(S(=O)(=O)NNC(=O)c2cc(-c3ccccc3)cc(C)c2F)C1` (stereo not shown) [Compound I-104], the values for the 50% inhibitory concentration (IC50) in assay [1] and in assay [2] were 50 to 100 µM and 10 to 50 µM, respectively.
The like results for `Cc1cc(-c2ccccc2)cc(C(=O)NNS(=O)(=O)C2CCN(C(=O)C(C)C)C2)c1F` (stereo not shown) [Compound I-105] were, in that order, 10 to 50 µM and 10 to 50 µM.
The like results for `COCCC(=O)N1CCC(S(=O)(=O)NNC(=O)c2cc(-c3ccccc3)cc(C)c2F)C1` (stereo not shown) [Compound I-106] were, in that order, 10 to 50 µM and 10 to 50 µM.
The corresponding values for `CCC(=O)N1CCC(S(=O)(=O)NNC(=O)c2cc(-c3ccccc3)cc(C)c2F)CC1` [Compound I-107] are 10 to 50 µM and 10 to 50 µM.
For the compound `Cc1cc(-c2ccccc2)cc(C(=O)NNS(=O)(=O)C2CCN(C(=O)C(C)C)CC2)c1F` [Compound I-108], the IC50 – broadly, the point on the concentration scale where inhibition reaches its midpoint – in assay [1] was at most 10 µM; in assay [2], 10 to 50 µM.
The corresponding values for `COCCC(=O)N1CCC(S(=O)(=O)NNC(=O)c2cc(-c3ccccc3)cc(C)c2F)CC1` [Compound I-109] are 10 to 50 µM and 10 to 50 µM.
The like results for `CCC(=O)N1CCCC(S(=O)(=O)NNC(=O)c2cc(-c3ccccc3)cc(C)c2F)C1` (stereo not shown) [Compound I-110] were, in that order, 50 to 100 µM and at most 10 µM.
The corresponding values for `Cc1cc(-c2ccccc2)cc(C(=O)NNS(=O)(=O)C2CCCN(C(=O)C(C)C)C2)c1F` (stereo not shown) [Compound I-111] are 10 to 50 µM and at most 10 µM.
`COCCC(=O)N1CCCC(S(=O)(=O)NNC(=O)c2cc(-c3ccccc3)cc(C)c2F)C1` (stereo not shown) [Compound I-112]: the IC50 in assay [1] and in assay [2] was 10 to 50 µM throughout.
As for `CCC(=O)N1CC(S(=O)(=O)NNC(=O)c2cc(-c3ccccc3)cc(C)c2F)C1` [Compound I-113], the IC50 in assay [1] lay within 50 to 100 µM; in assay [2], 10 to 50 µM.
With `Cc1cc(-c2ccccc2)cc(C(=O)NNS(=O)(=O)C2CN(C(=O)C(C)C)C2)c1F` [Compound I-114], the values for the IC50 in assay [1] and in assay [2] were over 100 µM and 10 to 50 µM, respectively.
The like results for `COCCC(=O)N1CC(S(=O)(=O)NNC(=O)c2cc(-c3ccccc3)cc(C)c2F)C1` [Compound I-115] were, in that order, 50 to 100 µM and 10 to 50 µM.
The like results for `O=C(NNS(=O)(=O)C1CCCCC1)c1ccccc1F` [Compound I-116] were, in that order, over 100 µM and over 100 µM.
The like results for `Cc1c(-c2ccccc2)ccc(F)c1C(=O)NNS(=O)(=O)C1CCCCC1` [Compound I-117] were, in that order, over 100 µM and 50 to 100 µM.
As to `Cc1cc(-c2ccccc2)cc(C(=O)NNS(=O)(=O)C2CCN(C(=O)OC(C)(C)C)C2)c1F` (stereo not shown) [Compound I-118, tert-Butyl 3-((2-(4-fluoro-5-methyl-[1,1′-biphenyl]-3-carbonyl)hydrazinyl)sulfonyl)pyrrolidine-1-carboxylate], the results for the IC50 in assay [1] and in assay [2] were 10 to 50 µM and at most 10 µM, respectively.
For `Cc1cc(-c2ccccc2)cc(C(=O)NNS(=O)(=O)C2CN(C(=O)OC(C)(C)C)C2)c1F` [Compound I-119, tert-Butyl 3-((2-(4-fluoro-5-methyl-[1,1′-biphenyl]-3-carbonyl)hydrazinyl)sulfonyl)azetidine-1-carboxylate], the IC50 in assay [1] and in assay [2] was 10 to 50 µM each time.
As to `Cc1cc(-c2ccccc2)cc(C(=O)NNS(=O)(=O)C2CNC2)c1F` [Compound I-120, N′-(4-Fluoro-5-methyl-[1,1′-biphenyl]-3-carbonyl)azetidine-3-sulfonohydrazide hydrochloride], the IC50 in assay [1] and in assay [2] was over 100 µM each time.
Consider `Cc1cc(-c2ccccc2)cc(C(=O)NNS(=O)(=O)C2CN(C(=O)OCc3ccccc3)C2)c1F` [Compound I-121, Benzyl 3-((2-(4-fluoro-5-methyl-[1,1′-biphenyl]-3-carbonyl)hydrazinyl)sulfonyl)azetidine-1-carboxylate], for which the IC50 in assay [1] and in assay [2] was 10 to 50 µM in each case.
For `Cc1nn(Cc2ccccc2)cc1C(=O)NNS(=O)(=O)c1ccccc1` [Compound I-122], the IC50 in assay [1] and in assay [2] was over 100 µM in each case.
With `Cc1cc(F)c(-c2ccccc2)cc1C(=O)NNS(=O)(=O)c1ccccc1` [Compound I-123], the IC50 in assay [1] and in assay [2] was over 100 µM in each case.
As to `Cc1nn(-c2ccccc2)cc1C(=O)NNS(=O)(=O)c1ccccc1` [Compound I-124], the IC50 in assay [1] and in assay [2] was over 100 µM throughout.
Take `Cc1cccc(-c2ccc(F)c(C(=O)NNS(=O)(=O)c3ccccc3)c2)c1` [Compound I-125]: the values for the IC50 in assay [1] and in assay [2] were 10 to 50 µM and at most 10 µM, respectively.
The corresponding values for `Cc1cc(C(=O)NNS(=O)(=O)c2ccccc2)cc(-c2ccccc2)c1F` [Compound I-126] are 50 to 100 µM and at most 10 µM.
The like results for `O=C(NNS(=O)(=O)c1cccc(Cl)c1)c1ccccc1F` [Compound I-127] were, in that order, over 100 µM and 10 to 50 µM.
For the compound `Cc1c(-c2ccccc2)ccc(F)c1C(=O)NNS(=O)(=O)c1cccc(Cl)c1` [Compound I-128], the results for the IC50 in assay [1] and in assay [2] were 50 to 100 µM and 10 to 50 µM, respectively.
The corresponding values for `COc1cc(-c2ccccc2)cc(C(=O)NNS(=O)(=O)c2ccccc2)c1F` [Compound I-129] are 10 to 50 µM and at most 10 µM.
The corresponding values for `O=C(NNS(=O)(=O)c1ccccc1Cl)c1ccccc1F` [Compound I-130] are over 100 µM and over 100 µM.
Turning to `Cc1cccc(S(=O)(=O)NNC(=O)c2cc(-c3ccccc3)ccc2F)c1` [Compound I-131], the figures for the IC50 in assay [1] and in assay [2] were over 100 µM and at most 10 µM, respectively.
The like results for `O=C(NNS(=O)(=O)c1ccccc1)c1c(F)ccc(-c2ccccn2)c1F` [Compound I-132] were, in that order, 50 to 100 µM and at most 10 µM.
The like results for `O=C(NN[S+]([O-])c1ccccc1)c1ccccc1F` (stereo not shown) [Compound I-133] were, in that order, over 100 µM and over 100 µM.
The like results for `O=C(NNC(c1ccccc1)C(F)(F)F)c1ccccc1F` (stereo not shown) [Compound I-134] were, in that order, over 100 µM and over 100 µM.
In the case of `Cc1cccc(F)c1C(=O)NNS(=O)(=O)c1ccccc1` [Compound I-135], the IC50 in assay [1] and in assay [2] was over 100 µM throughout.
In the case of `O=C(NNS(=O)(=O)c1ccccc1)c1c(F)c(Cl)cc(-c2ccccc2)c1F` [Compound I-136], the IC50 in assay [1] and in assay [2] was at most 10 µM each time.
Turning to `Cc1cc(-c2ccccc2)cc(C(=O)NNS(=O)(=O)C2CC3CCC(C2)N3C(=O)OC(C)(C)C)c1F` (stereo not shown) [Compound I-137], the IC50 in assay [1] and in assay [2] was 10 to 50 µM each time.
